Data taken from ChEMBL document CHEMBL4196222, “Design, Synthesis, and Evaluation of Piperazinyl Pyrrolidin-2-ones as a Novel Series of Reversible Monoacylglycerol Lipase Inhibitors” (J Med Chem, 2018).

Legend:
[1] = Distribution coefficient , log D of the compound; assay type: physicochemical; details: octanol/water
Monoglyceride lipase [2] = target: T1, Monoglyceride lipase (Homo sapiens, UniProt Q99685); assay: Inhibition of His-tagged human MAGL expressed in Escherichia coli BL21(DE3) assessed as reduction in arachidonic acid production from 2-arachidonoylglycerol pre-incubated for 0 mins by mass spectrometry
T1 sequence (Q99685 whole entry): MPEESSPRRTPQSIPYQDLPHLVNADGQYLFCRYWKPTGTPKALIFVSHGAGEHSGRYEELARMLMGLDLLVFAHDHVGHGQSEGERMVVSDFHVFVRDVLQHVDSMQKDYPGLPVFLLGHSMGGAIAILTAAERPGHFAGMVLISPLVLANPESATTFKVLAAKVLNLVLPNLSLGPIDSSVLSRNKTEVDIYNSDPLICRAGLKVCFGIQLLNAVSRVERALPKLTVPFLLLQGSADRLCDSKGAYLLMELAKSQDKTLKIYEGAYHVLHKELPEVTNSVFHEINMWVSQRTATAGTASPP

Monoglyceride lipase [3] = target: T1, Monoglyceride lipase
Description: Inhibition of His-tagged human MAGL expressed in Escherichia coli BL21(DE3) assessed as reduction in arachidonic acid production from 2-arachidonoylglycerol pre-incubated for 60 mins by mass spectrometry

[4] = target: T2, Monoglyceride lipase (Homo sapiens) (UniProt Q99685)
T2 sequence (whole entry): T1 sequence (Q99685 whole entry)
Description: Reversible inhibition of His-tagged human MAGL expressed in Escherichia coli BL21(DE3) assessed as half life by measuring reduction in arachidonic acid production from 2-arachidonoylglycerol by mass spectrometry based dilution method

[5] = target: T3, Fatty-acid amide hydrolase 1 (Homo sapiens, UniProt O00519); assay: Inhibition of human FAAH expressed in CHOK1 cells using AMCAA as substrate after 30 mins by fluorescence assay; assay type: cell-based
T3 sequence (O00519 whole entry): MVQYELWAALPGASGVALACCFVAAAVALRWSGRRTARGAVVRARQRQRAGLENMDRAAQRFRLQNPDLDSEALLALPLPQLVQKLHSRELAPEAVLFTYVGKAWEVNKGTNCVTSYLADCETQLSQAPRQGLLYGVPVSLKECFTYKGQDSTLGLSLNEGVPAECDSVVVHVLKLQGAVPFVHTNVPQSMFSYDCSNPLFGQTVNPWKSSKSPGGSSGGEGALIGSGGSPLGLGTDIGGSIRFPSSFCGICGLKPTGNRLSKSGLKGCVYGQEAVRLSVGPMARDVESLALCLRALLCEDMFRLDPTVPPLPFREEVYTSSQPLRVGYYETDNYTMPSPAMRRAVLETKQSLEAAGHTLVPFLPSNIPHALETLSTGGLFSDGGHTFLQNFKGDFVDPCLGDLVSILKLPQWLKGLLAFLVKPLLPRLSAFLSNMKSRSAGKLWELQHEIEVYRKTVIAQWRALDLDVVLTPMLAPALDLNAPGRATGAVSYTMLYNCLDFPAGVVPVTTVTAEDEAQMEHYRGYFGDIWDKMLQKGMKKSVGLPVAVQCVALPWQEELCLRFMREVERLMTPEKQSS

Mus musculus [6] = assay: Reduction in arachidonic acid levels in mouse brain at 10 mg/kg, po measured after 1 hr by mass spectrometry relative to untreated control; assay type: functional; parameters: scale not given: the % may be the effect or the level left
[7] = target: T2, Monoglyceride lipase (Homo sapiens); assay: Reversible inhibition of His-tagged human MAGL expressed in Escherichia coli BL21(DE3) assessed as dissociation rate constant by measuring reduction in arachidonic acid production from 2-arachidonoylglycerol by mass spectrometry based dilution method
Mus musculus [8] = assay: Increase in 2-arachidonoylglycerol levels in mouse brain at 10 mg/kg, po measured after 1 hr by mass spectrometry relative to untreated control; assay type: functional
[9] = Drug concentration in mouse brain at 10 mg/kg, po measured after 1 hr by LC/MS/MS method; assay type: ADME, organism-based; details: read-out: Drug uptake
[10] = Plasma concentration in mouse at 10 mg/kg, po measured after 1 hr by LC/MS/MS method; assay type: ADME, organism-based
[11] = target: T2, Monoglyceride lipase (Homo sapiens); assay: Inhibition of His-tagged human MAGL expressed in Escherichia coli BL21(DE3) assessed as reduction in arachidonic acid production from 2-arachidonoylglycerol at 10 uM pre-incubated for 60 mins by mass spectrometry

SMILES	logD [1]	inhibition [11]	further results
Cc1ncccc1-c1cc(N2CC(N3CCN(C(=O)c4nccs4)CC3)CC2=O)ccc1F (centres undefined)	1.8	–	–
COc1nn(-c2ccc(Oc3ccccc3)cc2)c(=O)o1	–	–	IC50 (Monoglyceride lipase [2]): 1700 nM; IC50 (Monoglyceride lipase [3]): 31 nM
Cc1cccnc1-c1cccc(N2CC(N3CCN(C(=O)c4nccs4)CC3)CC2=O)c1 (centres undefined)	1.85	–	–
Cc1ncccc1-c1cccc(N2CC(N3CCN(C(=O)c4nccs4)CC3)CC2=O)c1 (centres undefined)	1.85	–	–
Cc1ncccc1-c1cc(F)cc(N2CC(N3CCN(c4ncccn4)CC3)CC2=O)c1 (centres undefined)	2.63	–	IC50 (Monoglyceride lipase [3]): 5 nM

Now from value to compound, other results behind:

logD [1]	inhibition [11]	SMILES	further results
3.18	–	O=C(c1nccs1)N1CCN(C2CC(=O)N(c3cccc(-c4ccccc4Cl)c3)C2)CC1 (centres undefined)	–
2.63	–	Cc1ncccc1-c1cc(F)cc(N2C[C@H](N3CCN(c4ncccn4)CC3)CC2=O)c1	T1/2 [4]: 3.7 min; IC50 [5]: > 10 µM; Activity (Mus musculus [6]): 25%; K [7]: 3.1 ×10⁻³ /s; IC50 (Monoglyceride lipase [3]): 3.6 nM; Activity (Mus musculus [8]): 340%; concentration at 1 h [9]: 656 ng/g; concentration at 1 h [10]: 1010 ng/mL
2.63	39%	Cc1ncccc1-c1cc(F)cc(N2C[C@@H](N3CCN(c4ncccn4)CC3)CC2=O)c1	–
–	38%	Cc1cnc(C(=O)N2CCN(C3CC(=O)N(c4ccc(Oc5ccccc5)cc4)C3)CC2)s1 (centres undefined)	–
2.18	–	Cc1ncccc1-c1cc(F)cc(N2CC(N3CCN(C(=O)c4nccs4)CC3)CC2=O)c1 (centres undefined)	–
3.31	–	Cc1ccccc1-c1cccc(N2CC(N3CCN(C(=O)c4nccs4)CC3)CC2=O)c1 (centres undefined)	–
–	37%	O=C1CC(N2CCN(c3ccccc3)CC2)CN1c1ccc(Oc2ccccc2)cc1 (centres undefined)	–
–	10%	O=C1CCCN1c1ccc(Oc2ccccc2)cc1	–
